In ChEMBL document CHEMBL5696441 (Nat Chem Biol, 2011):

What was measured:
[1] = target: Serine/threonine-protein kinase 16 (Homo sapiens) (UniProt O75716); experiment: Inhibition of STK16 (unknown origin) assessed as remaining activity at 1 uM by Kinome scan method relative to control
CYP2D6 = CYP2D6 (Homo sapiens, UniProt P10635); experiment: Inhibition of CYP2D6 (unknown origin) at 10 uM relative to control; assay type: ADME
[2] = target: Ephrin type-B receptor 3 (Homo sapiens) (UniProt P54753); experiment: Inhibition of human EPHB3 assessed as residual activity at 1 uM using polyEY as substrate in presence of 33P-ATP by ProQinase assay relative to control
[3] = target: Angiopoietin-1 receptor (Homo sapiens) (UniProt Q02763); experiment: Inhibition of TIE2 (unknown origin) assessed as remaining activity at 1 uM by Kinome scan method relative to control
[4] = target: Proto-oncogene tyrosine-protein kinase ROS (Homo sapiens) (UniProt P08922); experiment: Inhibition of ROS1 (unknown origin) assessed as remaining activity at 1 uM by Kinome scan method relative to control
[5] = target: Macrophage-stimulating protein receptor (Homo sapiens) (UniProt Q04912); experiment: Inhibition of human RON assessed as residual activity at 1 uM using polyEY as substrate in presence of 33P-ATP by ProQinase assay relative to control
[6] = target: Serine/threonine-protein kinase mTOR (Homo sapiens) (UniProt P42345); experiment: Inhibition of human mTOR assessed as residual activity at 1 uM using casein as substrate in presence of 33P-ATP by ProQinase assay relative to control
[7] = target: Rho-associated protein kinase 2 (Homo sapiens) (UniProt O75116); experiment: Inhibition of ROCK2 (unknown origin) assessed as remaining activity at 1 uM by Kinome scan method relative to control
[8] = target: Tyrosine-protein kinase receptor TYRO3 (Homo sapiens) (UniProt Q06418); experiment: Inhibition of human TYRO3 assessed as residual activity at 1 uM using PolyEY as substrate in presence of 33P-ATP by ProQinase assay relative to control
[9] = target: Serine/threonine-protein kinase PAK 4 (Homo sapiens) (UniProt O96013); experiment: Inhibition of human PAK4 assessed as residual activity at 1 uM using bio-4xCHKT as substrate in presence of 33P-ATP by ProQinase assay relative to control
[10] = target: Hepatocyte growth factor receptor (Homo sapiens) (UniProt P08581); experiment: Inhibition of MET (unknown origin) assessed as remaining activity at 1 uM by Kinome scan method relative to control
[11] = Anti-inflammatory activity against human derived medium respond PBMC cells assessed as inhibition in stimulated IL-5 cytokine release incubated for 2 hrs in the presence of LPS/SEB/aCD28 by Luminex based sandwich immunoassay; assay type: functional, cell-based
[12] = target: Homeodomain-interacting protein kinase 1 (Homo sapiens) (UniProt Q86Z02); experiment: Inhibition of human HIPK1 assessed as residual activity at 1 uM using RBER-CHKtide as substrate in presence of 33P-ATP by ProQinase assay relative to control
[13] = tested on: Hepatocyte growth factor receptor (Homo sapiens), P08581 [D1228H]; experiment: Inhibition of human MET D1228H mutant assessed as residual activity at 1 uM using poly(Ala,Glu,Lys,Tyr)6:2:5:1 as substrate in presence of 33P-ATP by ProQinase assay relative to control
[14] = tested on: Tyrosine-protein kinase ABL1 (Homo sapiens), P00519 [Q252H]; experiment: Inhibition of human ABL1 Q252H mutant assessed as residual activity at 1 uM using Poly(Ala,Glu,Lys,Tyr)6:2:5:1 as substrate in presence of 33P-ATP by ProQinase assay relative to control
[15] = target: PAS domain-containing serine/threonine-protein kinase (Homo sapiens) (UniProt Q96RG2); experiment: Inhibition of human PASK assessed as residual activity at 1 uM using RBER-CHKtide as substrate in presence of 33P-ATP by ProQinase assay relative to control
[16] = tested on: Leucine-rich repeat serine/threonine-protein kinase 2 (Homo sapiens), Q5S007 [R1441C]; experiment: Inhibition of human LRRK2 R1441C mutant assessed as residual activity at 1 uM using RBER-CHKtide as substrate in presence of 33P-ATP by ProQinase assay relative to control
[17] = tested on: Hepatocyte growth factor receptor (Homo sapiens), P08581 [Y1230H]; experiment: Inhibition of human MET Y1230H mutant assessed as residual activity at 1 uM using poly(Ala,Glu,Lys,Tyr)6:2:5:1 as substrate in presence of 33P-ATP by ProQinase assay relative to control
[18] = target: Mitogen-activated protein kinase kinase kinase 7 (Homo sapiens) (UniProt O43318); experiment: Inhibition of TAK1 (unknown origin) assessed as remaining activity at 1 uM by Kinome scan method relative to control
[19] = target: Serine/threonine-protein kinase Nek7 (Homo sapiens) (UniProt Q8TDX7); experiment: Inhibition of NEK7 (unknown origin) assessed as remaining activity at 1 uM by Kinome scan method relative to control
[20] = target: Mitogen-activated protein kinase 10 (Homo sapiens) (UniProt P53779); experiment: Inhibition of JNK3 (unknown origin) assessed as remaining activity at 1 uM by Kinome scan method relative to control
[21] = target: Casein kinase I isoform epsilon (Homo sapiens) (UniProt P49674); experiment: Inhibition of human CK1epsilon assessed as residual activity at 1 uM using casein as substrate in presence of 33P-ATP by ProQinase assay relative to control
[22] = target: 5'-AMP-activated protein kinase catalytic subunit alpha-1 (Homo sapiens) (UniProt Q13131); experiment: Inhibition of human AMPKalpha1 assessed as residual activity at 1 uM using RBER-CHKtide as substrate in presence of 33P-ATP by ProQinase assay relative to control
[23] = target: Mitogen-activated protein kinase kinase kinase 6 (Homo sapiens) (UniProt O95382); experiment: Inhibition of ASK2 (unknown origin) assessed as remaining activity at 1 uM by Kinome scan method relative to control
[24] = tested on: Tyrosine-protein kinase ABL1 (Homo sapiens), P00519 [T315I]; experiment: Inhibition of human ABL1 T315I mutant assessed as residual activity at 1 uM using Poly(Ala,Glu,Lys,Tyr)6:2:5:1 as substrate in presence of 33P-ATP by ProQinase assay relative to control

Chain of Serine/threonine-protein kinase PAK 4 (Homo sapiens) (O96013 whole entry, looked up): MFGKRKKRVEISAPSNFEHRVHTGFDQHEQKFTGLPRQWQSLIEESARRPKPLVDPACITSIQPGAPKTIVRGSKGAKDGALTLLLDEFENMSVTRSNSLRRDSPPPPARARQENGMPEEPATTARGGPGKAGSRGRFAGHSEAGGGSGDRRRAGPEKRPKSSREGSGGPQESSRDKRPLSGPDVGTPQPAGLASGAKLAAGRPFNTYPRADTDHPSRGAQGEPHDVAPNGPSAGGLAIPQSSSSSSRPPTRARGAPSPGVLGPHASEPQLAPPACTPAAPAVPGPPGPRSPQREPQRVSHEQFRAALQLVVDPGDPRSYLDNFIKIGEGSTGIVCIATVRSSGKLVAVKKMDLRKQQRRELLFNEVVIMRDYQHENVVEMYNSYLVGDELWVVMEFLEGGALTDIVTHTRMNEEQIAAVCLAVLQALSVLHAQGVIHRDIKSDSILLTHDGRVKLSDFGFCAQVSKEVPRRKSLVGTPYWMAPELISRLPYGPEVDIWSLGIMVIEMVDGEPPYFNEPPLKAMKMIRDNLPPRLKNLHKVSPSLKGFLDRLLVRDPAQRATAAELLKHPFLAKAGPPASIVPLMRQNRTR
Chain of 5'-AMP-activated protein kinase catalytic subunit alpha-1 (Homo sapiens) (Q13131 whole entry, looked up): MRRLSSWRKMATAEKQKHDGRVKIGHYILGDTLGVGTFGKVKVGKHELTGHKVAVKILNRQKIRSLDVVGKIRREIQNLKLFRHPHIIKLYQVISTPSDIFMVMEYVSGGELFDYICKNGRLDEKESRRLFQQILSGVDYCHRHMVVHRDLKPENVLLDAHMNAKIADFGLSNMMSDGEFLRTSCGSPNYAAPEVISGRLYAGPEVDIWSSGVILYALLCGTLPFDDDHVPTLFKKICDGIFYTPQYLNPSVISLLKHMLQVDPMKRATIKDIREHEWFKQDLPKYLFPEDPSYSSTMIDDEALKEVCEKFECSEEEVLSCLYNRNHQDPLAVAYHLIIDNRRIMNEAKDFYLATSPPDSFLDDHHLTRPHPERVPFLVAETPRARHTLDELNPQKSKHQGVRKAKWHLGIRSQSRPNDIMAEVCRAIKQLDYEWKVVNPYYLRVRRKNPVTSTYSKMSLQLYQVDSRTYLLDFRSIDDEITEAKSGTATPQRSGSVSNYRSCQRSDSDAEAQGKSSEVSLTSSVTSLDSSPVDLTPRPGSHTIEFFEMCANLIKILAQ
Chain of PAS domain-containing serine/threonine-protein kinase (Homo sapiens) (Q96RG2 whole entry, the tested form may be a part): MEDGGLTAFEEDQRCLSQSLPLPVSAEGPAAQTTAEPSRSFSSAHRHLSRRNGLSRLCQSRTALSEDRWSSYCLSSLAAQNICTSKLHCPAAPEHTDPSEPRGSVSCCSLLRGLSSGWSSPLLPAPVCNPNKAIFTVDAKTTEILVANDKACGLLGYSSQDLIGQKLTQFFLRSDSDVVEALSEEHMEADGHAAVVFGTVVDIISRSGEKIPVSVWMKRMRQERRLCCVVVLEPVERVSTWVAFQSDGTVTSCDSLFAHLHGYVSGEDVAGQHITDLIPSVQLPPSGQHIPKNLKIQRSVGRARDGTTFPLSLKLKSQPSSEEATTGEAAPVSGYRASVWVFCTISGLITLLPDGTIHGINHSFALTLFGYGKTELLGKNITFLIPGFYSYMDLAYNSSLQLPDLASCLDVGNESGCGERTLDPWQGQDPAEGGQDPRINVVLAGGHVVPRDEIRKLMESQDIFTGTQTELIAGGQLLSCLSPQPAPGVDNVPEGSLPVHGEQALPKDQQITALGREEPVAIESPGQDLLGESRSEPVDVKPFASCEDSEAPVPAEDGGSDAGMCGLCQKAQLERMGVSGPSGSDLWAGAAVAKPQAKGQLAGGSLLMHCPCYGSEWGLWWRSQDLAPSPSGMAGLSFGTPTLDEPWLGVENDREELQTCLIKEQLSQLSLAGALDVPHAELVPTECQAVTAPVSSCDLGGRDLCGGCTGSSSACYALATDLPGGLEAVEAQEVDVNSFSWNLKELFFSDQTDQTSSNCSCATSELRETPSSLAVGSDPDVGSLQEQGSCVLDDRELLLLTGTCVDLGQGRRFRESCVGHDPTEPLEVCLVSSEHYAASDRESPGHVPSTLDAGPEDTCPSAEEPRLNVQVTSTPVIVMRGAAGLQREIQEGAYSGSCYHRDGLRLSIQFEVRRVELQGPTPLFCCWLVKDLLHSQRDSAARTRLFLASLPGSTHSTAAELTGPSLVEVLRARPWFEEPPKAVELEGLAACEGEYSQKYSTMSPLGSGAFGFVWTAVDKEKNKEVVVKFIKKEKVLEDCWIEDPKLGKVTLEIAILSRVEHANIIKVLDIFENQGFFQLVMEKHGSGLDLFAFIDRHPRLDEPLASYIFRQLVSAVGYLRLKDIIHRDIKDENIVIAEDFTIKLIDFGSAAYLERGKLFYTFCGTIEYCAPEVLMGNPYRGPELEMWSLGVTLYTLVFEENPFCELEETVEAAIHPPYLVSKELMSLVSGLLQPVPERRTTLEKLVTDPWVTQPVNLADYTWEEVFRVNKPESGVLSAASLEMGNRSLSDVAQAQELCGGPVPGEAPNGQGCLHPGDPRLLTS
Chain of Serine/threonine-protein kinase 16 (Homo sapiens) (O75716 whole entry): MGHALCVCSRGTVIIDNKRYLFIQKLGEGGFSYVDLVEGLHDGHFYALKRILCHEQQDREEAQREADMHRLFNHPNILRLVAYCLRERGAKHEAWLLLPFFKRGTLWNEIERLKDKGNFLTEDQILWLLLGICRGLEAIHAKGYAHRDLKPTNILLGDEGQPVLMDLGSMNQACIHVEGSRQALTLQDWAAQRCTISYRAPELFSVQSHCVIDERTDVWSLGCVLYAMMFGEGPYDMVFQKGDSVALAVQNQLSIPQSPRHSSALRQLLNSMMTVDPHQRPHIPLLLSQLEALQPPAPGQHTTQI
Chain of Mitogen-activated protein kinase kinase kinase 6 (Homo sapiens) (O95382 whole entry): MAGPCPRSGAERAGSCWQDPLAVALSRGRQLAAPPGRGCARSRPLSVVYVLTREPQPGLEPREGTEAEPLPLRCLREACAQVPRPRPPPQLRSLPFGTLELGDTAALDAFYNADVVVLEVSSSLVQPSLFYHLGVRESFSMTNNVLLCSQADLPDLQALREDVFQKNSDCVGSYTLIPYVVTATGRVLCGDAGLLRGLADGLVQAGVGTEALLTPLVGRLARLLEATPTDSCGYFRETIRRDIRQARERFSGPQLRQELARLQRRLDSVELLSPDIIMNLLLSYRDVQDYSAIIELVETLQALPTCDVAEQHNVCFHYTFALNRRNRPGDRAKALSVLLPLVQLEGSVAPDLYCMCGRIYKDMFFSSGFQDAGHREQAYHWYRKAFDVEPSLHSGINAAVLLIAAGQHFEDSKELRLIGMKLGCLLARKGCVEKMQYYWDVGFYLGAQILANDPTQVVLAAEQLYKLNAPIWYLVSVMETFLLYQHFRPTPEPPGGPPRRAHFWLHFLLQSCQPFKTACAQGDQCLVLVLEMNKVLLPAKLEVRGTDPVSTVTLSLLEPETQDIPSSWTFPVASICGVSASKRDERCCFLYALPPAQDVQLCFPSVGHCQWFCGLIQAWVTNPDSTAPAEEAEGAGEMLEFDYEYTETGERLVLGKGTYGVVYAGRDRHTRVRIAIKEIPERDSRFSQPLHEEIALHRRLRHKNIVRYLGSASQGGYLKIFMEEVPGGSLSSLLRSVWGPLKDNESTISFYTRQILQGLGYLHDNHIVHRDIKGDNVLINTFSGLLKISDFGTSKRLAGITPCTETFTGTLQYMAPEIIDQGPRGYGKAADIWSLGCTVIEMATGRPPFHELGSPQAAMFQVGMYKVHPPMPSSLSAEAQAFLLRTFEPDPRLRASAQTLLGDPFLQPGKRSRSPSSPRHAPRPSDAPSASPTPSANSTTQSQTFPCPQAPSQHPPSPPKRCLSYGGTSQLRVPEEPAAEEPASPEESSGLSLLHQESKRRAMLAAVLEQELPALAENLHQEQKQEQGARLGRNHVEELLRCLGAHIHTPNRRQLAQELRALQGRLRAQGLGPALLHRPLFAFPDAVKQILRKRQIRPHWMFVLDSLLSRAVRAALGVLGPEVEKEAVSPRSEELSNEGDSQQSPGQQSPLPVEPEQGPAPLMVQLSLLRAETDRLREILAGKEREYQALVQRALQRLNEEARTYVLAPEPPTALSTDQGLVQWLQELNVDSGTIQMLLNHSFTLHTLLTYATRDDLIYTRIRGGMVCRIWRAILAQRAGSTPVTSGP
Chain of Mitogen-activated protein kinase kinase kinase 7 (Homo sapiens) (O43318 whole entry): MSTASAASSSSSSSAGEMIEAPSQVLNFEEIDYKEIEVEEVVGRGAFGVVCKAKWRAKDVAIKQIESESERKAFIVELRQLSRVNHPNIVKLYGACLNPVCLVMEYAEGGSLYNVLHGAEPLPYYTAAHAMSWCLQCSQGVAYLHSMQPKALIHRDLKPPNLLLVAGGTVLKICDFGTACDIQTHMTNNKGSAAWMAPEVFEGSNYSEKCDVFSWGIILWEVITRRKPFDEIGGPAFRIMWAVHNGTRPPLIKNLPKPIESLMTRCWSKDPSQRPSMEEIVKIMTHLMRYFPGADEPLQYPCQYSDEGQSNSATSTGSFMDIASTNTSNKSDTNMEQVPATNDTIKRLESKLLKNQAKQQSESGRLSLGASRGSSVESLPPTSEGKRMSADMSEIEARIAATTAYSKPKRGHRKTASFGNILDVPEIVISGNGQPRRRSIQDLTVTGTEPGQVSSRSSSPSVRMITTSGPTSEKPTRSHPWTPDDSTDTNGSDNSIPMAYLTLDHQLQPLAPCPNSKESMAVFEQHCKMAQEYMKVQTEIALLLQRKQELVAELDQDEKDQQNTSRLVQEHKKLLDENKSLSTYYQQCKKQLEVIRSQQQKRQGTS
Chain of Serine/threonine-protein kinase Nek7 (Homo sapiens) (Q8TDX7 whole entry, looked up): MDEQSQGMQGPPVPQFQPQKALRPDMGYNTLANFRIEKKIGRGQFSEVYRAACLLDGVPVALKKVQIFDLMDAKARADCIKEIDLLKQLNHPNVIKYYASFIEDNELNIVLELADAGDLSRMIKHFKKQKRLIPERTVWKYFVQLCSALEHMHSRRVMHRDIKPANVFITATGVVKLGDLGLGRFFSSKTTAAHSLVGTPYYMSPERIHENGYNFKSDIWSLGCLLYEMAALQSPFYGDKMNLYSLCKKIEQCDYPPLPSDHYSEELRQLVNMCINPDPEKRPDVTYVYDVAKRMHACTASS

In the case of `O=C1c2ccc(Nc3ccc(F)cc3F)cc2CCc2ccc(OC[C@H](O)CO)cc21` [Skepinone-L], the Activity [1] was 87%, the inhibition at 10 µM (CYP2D6) was -21% and the Activity [2] was 108%. For the same molecule, the Activity [3] was 100%, the Activity [4] was 99% and the Activity [5] was 56%. It also gave an Activity [6] of 97%, an Activity [7] of 100% and an Activity [8] of 108%. For the same molecule, the Activity [9] was 88%, the Activity [10] was 100% and the IC50 [11] was “Not Active”. The Activity [12] was 98%, the Activity [13] was 97% and the Activity [14] was 95%. The Activity [15] was 88%, the Activity [16] was 89% and the Activity [17] was 102%. The Activity [18] was 100%, the Activity [19] was 96% and the Activity [20] was 61%. For the same molecule, the Activity [21] was 86%, the Activity [22] was 84% and the Activity [23] was 100%. For the same molecule, the Activity [24] was 93%.
